Measurements published in US4267185A, “Antidepressant pyrrolylpiperidines, their pharmaceutical compositions and method of use” (E. I. Du Pont de Nemours and Company, priority 1980, dated 1981).
Read-outs that look alike come from different tables or passages of the source.

Tested on: tetrabenazine-induced sedation and depression in mice
Experiment: Antagonism of tetrabenazine-induced depression in mice, orally, at 1 hour post-drug
Type: in vivo, female white mice (Carworth CF1 S)
Conditions: Mus musculus
Description: This mouse test is predictive of human antidepressant response (Everett, "The Dopa Response Potentiation Test and Its Use in Screening for Antidepressant Drugs," pp. 164 in "Antidepressant Drugs" (Proceedings of the First International Symposium), S. Garattini and M. N. G. Dukes, eds., 1967).
Groups of 10 Carworth CF1 S female mice, 18-21 g each, were fasted 1.5 hours and were intubated with antagonist compounds at oral doses of 0, 0.33, 1, 3, 9, 27, and 81 mg/kg in 0.20 ml of 1% Methocel-1.25% Tween 80. The mice were challenged 30 minutes later with tetrabenazine (as the methanesulfonate), 32 mg/kg intraperitoneally (dissolved in 0.20 ml 0.05 M KCl at pH 2.0). One hour after antagonist (30 minutes after tetrabenazine), the mice were examined for signs of exploratory activity and ptosis (eyelid closure). Normal exploratory activity (relief from sedation) was recorded when a mouse lifted by the tail from a group of 10 in a testing box and placed on a stainless testing box lid (12.5"×8"with 0.33" mesh) either turned its head horizontally 30° in both directions or moved to the edge of the screen within 10 seconds after being placed on the screen. Relief from ptosis was recorded when exactly two seconds after placing the mouse facing the observer, lid closure was less than 50% in both eyes.

[1] = po, 1 h, read-out: ED50 for prevention of exploratory loss
[2] = po, 1 h, read-out: ED50 for prevention of ptosis

CN(C)CCC=C1c2ccccc2CCc2ccccc21 [Amitriptyline, reference compound]
ED50 (oral, 1 hour post-drug (30 min after tetrabenazine 32 mg/kg i.p.), exploratory activity, read-out: ED50 for prevention of exploratory loss): 3.5 mg/kg | ED50 (oral, 1 hour post-drug (30 min after tetrabenazine 32 mg/kg i.p.), lid closure less than 50% in both eyes, read-out: ED50 for prevention of ptosis): 1.4 mg/kg

CN1CC=C(c2cccn2C)CC1.Cl [Example 2, 1,2,3,6-Tetrahydro-1-methyl-4-(1-methylpyrrol-2-yl)pyridine, hydrochloride salt]
ED50 [1]: 1.4 mg/kg | ED50 [2]: 0.8 mg/kg

CN1CCC(O)(c2cccn2C)CC1 [Example 1, 1-Methyl-4-(1-methylpyrrol-2-yl)-4-piperidinol]
ED50 [1]: 1.8 mg/kg | ED50 [2]: 1.1 mg/kg
